Results taken from PubChem BioAssay (NCI).
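Five concentrations, 48 hours, 96-well plates. The concentration for 50% growth inhibition is given as GI50. TGI denotes the concentration required for complete inhibition of growth.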

Experiments:
Assay in all cases: growth of human tumour cells (NCI), 48 h
[1] = tested on: U251 CNS
[2] = tested on: A498 renal
[3] = tested on: MALME-3M melanoma
[4] = tested on: UACC-257 melanoma
[5] = tested on: MDA-MB-231 breast
[6] = tested on: HOP-62 NSCLC
[7] = tested on: DU-145 prostate
[8] = tested on: HCT-15 colon
[9] = tested on: K-562 leukemia
[10] = tested on: SK-OV-3 ovarian

| Structure (SMILES) | GI50 [1] [µM] | TGI [1] [µM] | GI50 [2] [µM] | TGI [2] [µM] | GI50 [3] [µM] | TGI [3] [µM] | GI50 [4] [µM] | TGI [4] [µM] | GI50 [5] [µM] | TGI [5] [µM] | GI50 [6] [µM] | TGI [6] [µM] | GI50 [7] [µM] | TGI [7] [µM] | GI50 [8] [µM] | TGI [8] [µM] | GI50 [9] [µM] | TGI [9] [µM] | GI50 [10] [µM] | TGI [10] [µM] |
| --- | --- | --- | --- | --- | --- | --- | --- | --- | --- | --- | --- | --- | --- | --- | --- | --- | --- | --- | --- | --- |
| CC1=C2[C@@H](CC1)[C@]1(C)O[C@@](C(C)C)(C[C@H]1OC(=O)CO)[C@H]2OC(=O)C1CC1c1ccccc1 (stereo not given in full) | 14.8 | 28.6 | 0.24 | 0.943 | 16.5 | 33.4 | 17.3 | 32.4 | 15.5 | 33.7 | 15.2 | 29.7 | 14.6 | 27.9 | 13 | 27.6 | 12.2 | 36.5 | 16.4 | 30.7 |
| COc1cc(Nc2ncc(-c3ccccc3)o2)cc(OC)c1 | > 25 | > 25 | 5.57 | > 25 | > 25 | > 25 | > 25 | > 25 | > 25 | > 25 | > 25 | > 25 | > 25 | > 25 | 18.6 | > 25 | > 22.5 | > 25 | > 25 | > 25 |
| COc1ccc2c(c1)nc(C(=O)c1ccco1)c(C(F)(F)F)[n+]2[O-] | > 100 | > 100 | > 100 | > 100 | > 100 | > 100 |  |  | > 100 | > 100 | > 100 | > 100 | > 100 | > 100 | > 100 | > 100 | > 100 | > 100 | > 100 | > 100 |
| COCc1c(-c2cc3cc(C)cc(OC)c3s2)c2c(N)ncnn2c1CN1CCNC(=O)C1 | 3.86 | 79.7 | 0.0102 | 0.0803 | 2.83 | 17.3 | 4.06 | 34.6 | 6.11 | 61.4 | 2.6 | 15.9 | 4.99 | > 100 | 3.63 | 83.7 |  |  | 2.62 | 7.72 |
| COc1ccc(C/C(=C(\C)c2ccc(OCCN3CCCC3)cc2)c2ccc(OCCN3CCCC3)cc2)cc1 | 1.8 | 3.32 | 2.5 | 8.04 | 1.67 | 3.26 | 1.76 | 3.31 | 1.73 | 3.37 | 2.18 | 7.02 | 1.86 | 3.75 | 1.51 | 3.05 | 1.53 | 3.6 | 1.86 | 3.68 |
| Nc1ccc(C2=CC(c3ccc(Cl)cc3)N3C=CSC3=N2)cc1 (stereo not given) | 2.94 | 12.1 | 6.17 | 23.8 | 18.1 | 47.8 | 3.8 | 17 | 4.76 | 46.9 | 4.38 | 16.4 | 5.11 | 16.9 | 2 | 5.63 |  |  | 5.07 | 25.5 |
| CN(C)c1ccc2oc(=O)c3ccccc3c2c1 |  | 58.7 |  | > 100 |  | > 100 |  | > 100 |  | 82.9 |  | 80.5 |  | > 100 |  | > 100 |  | > 100 |  |  |
| NC(=O)c1cc([N+](=O)[O-])c(Cl)c([N+](=O)[O-])c1Cl | 1.2 | 2.49 | 1.9 | 4.58 | 1.74 | 4.52 | 1.13 | 2.38 | 1.79 | 3.39 | 1.75 | 3.16 | 1.55 | 2.88 | 0.458 | 3.25 |  |  | 4.21 | 14.5 |
| Cc1cc2c(cc1Cl)S/C(=C/C(=O)O)C(Nc1ccc3ncsc3c1)=NS2(=O)=O | 28.6 | > 63.9 |  |  | > 35.3 | > 55.4 | > 27.2 | > 46 | 20.9 | > 63.7 | 17 | > 42.9 | 21.2 | > 97.3 | 27.4 | > 65.5 | 42.8 | > 100 | > 33.4 | > 52 |
| CC1=C(c2ccccc2)C(O)(c2ccccc2)C(C)C1=O (stereo not given) | 22.1 | > 100 |  |  | 27.7 | > 100 | 55 | > 100 | 14 | > 100 | 11.6 | > 100 | 27.2 | > 100 | 31.4 | > 100 | 4.71 | > 100 | 20 | > 100 |
| COc1ccc(CN2c3ccccc3Sc3ccccc32)c(C(F)(F)F)c1 | 0.431 | 27.4 | 0.372 | > 100 | 21 | > 100 |  |  | 3.05 | 58.6 | 0.604 | 35.6 | 2.08 | > 100 | 0.489 | > 100 | 0.395 | > 100 | 0.557 | > 100 |
